By melting point is commonly meant the temperature, or range, at which the solid turns liquid.

Structures can show the parent of a compound that is named as a salt.

Chain of Fyn (P06241 whole entry, species assumed): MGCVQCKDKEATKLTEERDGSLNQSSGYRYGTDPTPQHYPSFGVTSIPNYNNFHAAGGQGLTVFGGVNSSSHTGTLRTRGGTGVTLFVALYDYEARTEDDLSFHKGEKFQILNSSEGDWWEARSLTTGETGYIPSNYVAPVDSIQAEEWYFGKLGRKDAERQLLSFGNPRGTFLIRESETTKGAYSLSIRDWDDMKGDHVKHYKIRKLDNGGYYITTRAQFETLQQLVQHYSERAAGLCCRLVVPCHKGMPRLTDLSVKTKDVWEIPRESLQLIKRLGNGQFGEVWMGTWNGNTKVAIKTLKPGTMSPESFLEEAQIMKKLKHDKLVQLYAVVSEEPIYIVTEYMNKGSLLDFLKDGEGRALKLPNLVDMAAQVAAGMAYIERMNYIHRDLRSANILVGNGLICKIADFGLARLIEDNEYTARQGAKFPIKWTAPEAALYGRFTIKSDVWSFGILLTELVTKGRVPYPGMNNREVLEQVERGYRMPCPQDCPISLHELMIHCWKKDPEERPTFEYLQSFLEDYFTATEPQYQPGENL

Tested on in the first series: not given
Conditions: not given
On to `CC(C)Oc1ccc2nc(Nc3ccccc3)cnc2c1.Cl`, for which the melting point is 205 to 210 °C (dec.). With `COc1cc2ncc(CNC3CCCCC3)nc2cc1OC` (as salt: HCl) [Example 11, Cyclohexyl-(6,7-dimethoxyquinoxalin-2-ylmethyl)-amine], the melting point is 185 to 190 °C (dec.). `COc1cc2ncc(NC3CCCCC3)nc2cc1OC` [Example 3, 2-cyclohexylamino-6,7-dimethoxyquinoxaline] showed a melting point of 188 to 189.5 °C. On the same count and under the same terms, under `Oc1ccc2nc(Nc3ccccc3)cnc2c1` [Example 8, 2-Anilino-6-quinoxalinol] stands 211 to 213 °C. For `c1ccc(Nc2cnc3cc(O[C@@H]4CCOC4)ccc3n2)cc1` [Example 9, Phenyl-[6-(tetrahydrofuran-3-(R)-yl-oxy)quinoxalin-2-yl]amine], the melting point lay in the range of 173 to 175 °C.

For `COc1cc2ncc(OC3CCCCC3)nc2cc1OC1CCCCC1` [Example 10, 2,7-Bis-cyclohexyloxy-6-methoxy-quinoxaline], the melting point fell in the range of 75 to 78 °C. The compound `COc1cc2cc(NCC(C)(C)CO)cnc2cc1OC` [Example 13, 3-(6,7-Dimethoxyquinolin-3-yl-amino)-2,2-dimethyl-propan-1-ol] returned a melting point of 170 to 173.5 °C. For the compound `COc1cc2ncc(NC3CCCCC3)nc2cc1N1CCOCC1` [Example 14, Cyclohexyl-(6-methoxy-7-morpholin-4-yl-quinoxalin-2-yl)-amine], the melting point lay in the range of 194 to 196 °C. `COc1cc2ncc(N[C@@H]3C[C@H]4CC[C@@H]3C4)nc2cc1OC` [Example 22, (1R,2R,4S)-(+)-Bicyclo[2.2.1]hept-2-yl-(6,7-dimethoxyquinoxalin-2-yl)-amine]: the melting point lay within 184 to 186 °C.

The target in a further series is Lck (Homo sapiens, UniProt P06239). Conditions: background, literature report; cited from earlier work.
Chain of Lck (P06239 whole entry, species assumed): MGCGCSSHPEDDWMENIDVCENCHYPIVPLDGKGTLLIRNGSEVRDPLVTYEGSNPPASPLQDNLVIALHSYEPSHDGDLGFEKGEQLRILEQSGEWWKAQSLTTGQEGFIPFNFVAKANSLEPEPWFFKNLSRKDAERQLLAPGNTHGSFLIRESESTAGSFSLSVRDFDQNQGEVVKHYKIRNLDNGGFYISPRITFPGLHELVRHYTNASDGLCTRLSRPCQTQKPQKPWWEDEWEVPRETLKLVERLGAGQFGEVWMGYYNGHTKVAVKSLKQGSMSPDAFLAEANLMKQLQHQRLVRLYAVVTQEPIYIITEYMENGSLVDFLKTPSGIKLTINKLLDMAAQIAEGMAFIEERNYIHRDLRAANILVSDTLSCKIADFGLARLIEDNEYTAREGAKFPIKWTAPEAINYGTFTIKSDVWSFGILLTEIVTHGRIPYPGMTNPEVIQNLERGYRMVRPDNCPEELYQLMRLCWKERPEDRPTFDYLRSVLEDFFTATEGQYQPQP
`Cc1ccc(-c2nn(C(C)(C)C)c3ncnc(N)c23)cc1` [PP1]: the “potency against Lck (in words)” value is given as “low nanomolar”.

The next series concerns the target Fyn (Homo sapiens, UniProt P06241). Conditions: background, literature report (Hanke et al.); cited from earlier work.
With `Cc1ccc(-c2nn(C(C)(C)C)c3ncnc(N)c23)cc1` [PP1], the “potency against Fyn (in words)” value is on record as “low nanomolar”.

The values are drawn from patent US6821962B2, “Quinoline and quinoxaline compounds which inhibit platelet-derived growth factor and /or p56lck tyrosine kinases” (Aventis Pharmaceuticals Inc., priority 1997, dated 2004).
